From US20060211725A1, “Use” (Astellas Pharma Inc., priority 2002, published 2006)
“And” between values parts separate entries of the source, which are not always exact repeats. Equal values may be shown once. “Also recorded” adds a separate entry of the source.

Columns and labels:
[1] = system: F344 kidney allograft in LEW recipient rats; assay: Kidney allograft survival, prevention of chronic rejection (Example 1); format: in vivo, rat; conditions: 0-9 day; for Survival day: individual rats, n=5; for Survival rate (more than 90 days): untreated allograft 40%
Experimental: (§1) Inbred male Lewis rats (LEW) (RT1^I), weighing 250-300 g, were used as kidney transplantation recipients. Inbred male LEW and Fisher (F344) (RT1^IvI), weighing 250-350 g, were used as isograft and allograft donor rats, respectively. Kidney transplantation was performed using the modified technique of Fisher and Lee. [Fisher et al., Surgery, 58:904-914, 1965] Survival of kidney transplant was measured as time of recipient rat survival. Blood and 24 hr urine samples were collected once a week for plasma creatinine, proteinuria, and the measurement of antibody titer against donor glomeruli basement membrane protein (GBM). Kidney grafts were harvested on the 90th day posttranspalantation and subjected to histology and reverse transcriptase-polymerase chain reaction (RT-PCR) analysis. The compound (I), at doses of 10 mg/kg and 20 mg/kg were administered orally to recipient rats daily from day 0 to day 9 after transplantation. Control isograft and allograft recipients received no drug after transplantation.

[2] = system: F344 kidney allograft in LEW recipient rats; assay: Recipient kidney function: plasma creatinine and proteinuria (Example 1); format: in vivo, rat; conditions: weekly for 90 days
Experimental: as §1
The recipient's kidney function was determined by measuring their plasma creatinine and proteinuria once a week for 90 days. Blood and urine samples were collected from recipients with kidney grafts described in the above. Plasma creatinine was tested by Sigma Creatinine Kit and proteinuria by Bio-Rad Protein assay.

TGFβ gene expression = assay: RT-PCR for TGFβ gene expression in kidney graft (Example 1); format: in vivo, rat; conditions: 10 and 20 mg/kg PO day 0-9; day 90 after grafting; vs untreated allograft control
Experimental: Inbred male Lewis rats (LEW) (RT1^I), weighing 250-300 g, were used as kidney transplantation recipients. Inbred male LEW and Fisher (F344) (RT1^IvI), weighing 250-350 g, were used as isograft and allograft donor rats, respectively. Kidney transplantation was performed using the modified technique of Fisher and Lee. [Fisher et al., Surgery, 58:904-914, 1965] Survival of kidney transplant was measured as time of recipient rat survival. Blood and 24 hr urine samples were collected once a week for plasma creatinine, proteinuria, and the measurement of antibody titer against donor glomeruli basement membrane protein (GBM). Kidney grafts were harvested on the 90th day posttranspalantation and subjected to histology and reverse transcriptase-polymerase chain reaction (RT-PCR) analysis. The compound (I), at doses of 10 mg/kg and 20 mg/kg were administered orally to recipient rats daily from day 0 to day 9 after transplantation. Control isograft and allograft recipients received no drug after transplantation. TGFβ has been considered to play a crucial role for causing chronic allograft rejection. Kidney graft tissues harvested from recipients on day 90th after transplantation were subjected to RT-PCR for TGFβ gene expression. Total RNA was extracted from transplanted kidney tissues by TRIZOL. […]

[3] = system: antibody against F344 rat glomeruli basement membrane protein; assay: ELISA of plasma antibody against donor GBM (Example 1); format: in vivo; conditions: near days 20, 40, 90
Experimental: as §1
Specific antibody against F344 rat glomeruli basement membrane protein in plasma from LEW recipients with F344 kidneys were also measured in the isograft, untreated allograft and allograft treated with the compound (I) at doses of 10 mg/kg and 20 mg/kg near days 20, 40, and 90 after transplantation by using ELISA assay.

[4] = system: F344 kidney allograft in LEW recipient rats; assay: Recipient kidney function under rescue treatment of chronic rejection (Example 3); format: in vivo, rat
Experimental: (§2) The rats and kidney transplantation methods described in Example 1 were used. […] The isograft and untreated allograft served as control groups. Blood and urine samples were collected once a week from recipients with kidney grafts described in Example 1 for measuring their plasma creatinine and proteinuria. Plasma creatinine was tested by Sigma Creatinine Kit and proteinuria by Bio-Rad Protein assay.

[5] = system: F344 kidney allograft in LEW recipient rats; assay: Kidney graft histology under rescue treatment, modified Banff criteria (Example 3); format: in vivo, rat
Experimental: as §2
Using the methods described in Example 1, histological changes of chronic allograft rejection under rescue treatment of the compound (I) were analyzed. Histological sections were blindly evaluated by two histologists and scored semiquantitatively based on modified Banff' criteria for transplant pathology.

[6] = Compound (I) 10 mg/kg PO, 10 mg/kg
[7] = rescue 20 mg/kg PO for 3 weeks from onset of raised creatinine or proteinuria, after drug discontinued
[8] = 20 mg/kg for 3 weeks during ongoing chronic rejection, vs untreated allograft control
[9] = rescue, From day 40-70 (20 mg/kg for 3 weeks), one line per rat

In the case of `C#CCC/C(O)=C(\C#N)C(=O)Nc1ccc(C(F)(F)F)cc1` [Compound (I), (2Z)-2-cyano-3-hydroxy-N-[4-(trifluoromethyl)phenyl]-2-hepten-6-ynamide], the Survival day [1, 6] is reported as 28 days and > 90 days, the “Survival rate (more than 90 days)” value [1, 6] is reported as 80% and the Survival day ([1]; Compound (I) 20 mg/kg PO) is reported as >90(5) day. For the same molecule, the “Survival rate (more than 90 days)” value ([1]; Compound (I) 20 mg/kg PO, 20 mg/kg) was 100%, the plasma creatinine ([2]; 10 mg/kg PO day 0-9) was “maintained normal creatinine” and the proteinuria ([2]; 10 mg/kg PO day 0-9) was “undetectable proteinuria”. For the same molecule, the plasma creatinine ([2]; 20 mg/kg PO day 0-9) was “maintained normal creatinine”, the proteinuria ([2]; 20 mg/kg PO day 0-9) was “undetectable proteinuria” and the “TGFβ gene expression (mRNA) in kidney graft” value (TGFβ gene expression) was “inhibited TGFβ gene expression in a dose-dependent manner”. The “production of antibody against donor GBM in plasma” value ([3]; 10 mg/kg PO day 0-9) was “a trend of reduced production of antibody against donor GBM”, the “production of antibody against donor GBM in plasma” value ([3]; 20 mg/kg PO day 0-9) was “a trend of reduced production of antibody against donor GBM” and the plasma creatinine [4, 7] was “tended to be at a normal level”. For the same molecule, the proteinuria [4, 7] was “tended to be at a normal level”, the recipient kidney function ([4]; rescue 20 mg/kg PO for 3 weeks, immediate effect) was “did not show an immediate improvement” and the “approximate cumulative reduction in Banff score: fibro-intimal hyperplasia” value [5, 8] was ~53%. For the same molecule, the “approximate cumulative reduction in Banff score: glomerulitis” value [5, 8] was ~38%, the “approximate cumulative reduction in Banff score: interstitial inflammation” value [5, 8] was ~50% and the “approximate cumulative reduction in Banff score: mesangiolysis” value [5, 8] was ~33%. For the same molecule, the “approximate cumulative reduction in Banff score: transplant glomerulopathy” value [5, 8] was ~89%, the “approximate cumulative reduction in Banff score: tubular atrophy” value [5, 8] was ~42% and the “approximate cumulative reduction in Banff score: tubulitis” value [5, 8] was ~70%. The “approximate cumulative reduction in Banff score: vasculitis” value [5, 8] was ~92%, the “Banff grade: Fibro-intimal Hyperplasia” value [5, 9] was “++ ((++):Grade 2, Moderate); also recorded: − ((−):Grade 0, Normal)” and the “Banff grade: Glomerulitis” value [5, 9] was “+ ((+):Grade 1, Mild); also recorded: − ((−):Grade 0, Normal); also recorded: ++ ((++):Grade 2, Moderate)”. For the same molecule, the “Banff grade: Glomerulosclerosis” value [5, 9] was “− ((−):Grade 0, Normal); also recorded: + ((+):Grade 1, Mild)”, the “Banff grade: Inflammation” value [5, 9] was “+ ((+):Grade 1, Mild); also recorded: ++ ((++):Grade 2, Moderate)” and the “Banff grade: Mesangiolysis” value [5, 9] was “− ((−):Grade 0, Normal); also recorded: + ((+):Grade 1, Mild)”. The “Banff grade: Transplant Glomerulopathy” value [5, 9] was “− ((−):Grade 0, Normal); also recorded: + ((+):Grade 1, Mild)”, the “Banff grade: Tubular Atrophy” value [5, 9] was “− ((−):Grade 0, Normal); also recorded: + ((+):Grade 1, Mild)” and the “Banff grade: Tubulitis” value [5, 9] was “− ((−):Grade 0, Normal)”. For the same molecule, the “Banff grade: Vasculitis” value [5, 9] was “+++ ((+++):Grade 3, Severe); also recorded: + ((+):Grade 1, Mild)”.
